As a reminder, the IC50 is the concentration at which inhibition is half-maximal.

Where “and” joins values, the source holds several entries; their conditions need not be identical. Equal entries are not always repeated. Where two headings read alike, the source gives them in different places.

This is an account of results in PMC12781162, “Human Protein Z as the Second Known Heme‐Binding Protein from the Endogenous Blood Coagulation Inhibitor System” (Chembiochem, 2025).

One assay has as its target T1, Human protein Z (PZ) (Homo sapiens, UniProt P22891).
T1 construct: purchased CellSystems GmbH HCPZ-0220
Put plainly: SPR binding of porphyrins to immobilized PZ (single-cycle kinetics). To be noted: for Kd: heterogenous ligand model. On the procedure: (§1) SPR experiments were conducted on a Biacore 8K instrument (Cytiva) to investigate the interaction of PZ with heme, as established before.^[ [19] ^, [35] ^, [37] ^, [43] ^] In brief, PZ (10 µg mL^−1) was dissolved in 10 mM sodium acetate buffer (pH 3.5) and immobilized onto a CM5 sensor chip via standard amine coupling, resulting in a final immobilization level of 767 RU. Heme (stock solution in 30 mM NaOH) was further diluted in running buffer (10 mM HEPES, 150 mM NaCl, and 0.05% Tween 20, pH 7.4). The same was performed with zinc (II) protoporphyrin IX and protoporphyrin IX (Frontier Scientific). Binding kinetics were assessed by injecting seven increasing concentrations of heme (187.5–12,000 nM) in a single‐cycle kinetics format at 25 °C and a flow rate of 30 µL min^−1. Data analysis was performed by global fitting using Biacore Insight Evaluation Software, version 3.0.12.15655 (Cytiva).
On the technique in general: In SPR one partner is held on a chip, and binding of the other changes the refractive index at the surface.

In assay [1] the target is activated protein C (APC). On the set-up: method as in PMID 32705892. To be noted: read-out: K D (heme binding to APC); cited from earlier work.
The target of a further assay is fibrinogen. On the set-up: method as in PMID 29322134, PMID 27229173. Conditions: read-out: K D (heme binding to fibrinogen); cited from earlier work.
For another assay, the target named is T2, PZ (Homo sapiens, UniProt P22891).
T2 construct: purchased CellSystems GmbH HCPZ-0220 (PZ); HCXA-0060 (FXa)
Nature of the assay: aPTT-based one-stage clotting assay: anticoagulant function of PZ against FXa in the presence of heme. It counts as biochemical. To be noted: PZ 32 nM, FXa 0.1 nM; for impact alone on the procoagulant function of FXa or on clotting of pure plasma (aPTT): controls, heme 0.06 – 20 µM. As to the method: To estimate an effect on molecular level, the structure of the PZ–ZPI complex (PDB: 3H5C^[ [42] ^]) was first inspected with heme attached to PZ. The anticoagulant function of PZ was then analyzed in the presence of heme by a one‐stage clotting assay, which was inspired by previous work from us and others.^[ [19] ^, [27] ^] The aPTT‐based assay was performed with the ball coagulometer KC 4 A (Amelung, Lemgo, Germany). PZ (320 nM) was preincubated with different concentrations of heme (0–100 µM) for 30 min in 1x PBS, pH 7.4. Afterward, 50 µL of the PZ–heme mixture was incubated with 50 µL of Actin FSL, 50 µl CaCl2 (30 mM), and 50 µL FXa (0.5 nM) at 37 °C for 3 min. Finally, 50 µL citrated pooled plasma was added and the clotting time was automatically recorded. The following mixtures served as controls: 1) 50 µL PBS‐heme + 50 µL Actin FSL + 50 µL CaCl2 + 50 µL FXa + 50 µL citrated plasma, 2) 50 µL PBS‐heme + 50 µL Actin FSL + 50 µL CaCl2 + 50 µL PBS + 50 µL citrated plasma, 3) 50 µL PZ–heme + 50 µL Actin FSL + 50 µL CaCl2 + 50 µL PBS + 50 µL citrated plasma, 4) 50 µL PZ‐PBS + 50 µL Actin FSL + 50 µL CaCl2 + 50 µL FXa + 50 µL citrated plasma, 5) 50 µL PZ‐PBS + 50 µL Actin FSL + 50 µL CaCl2 + 50 µL PBS + 50 µL citrated plasma, 6) 50 µL PBS + 50 µL Actin FSL + 50 µL CaCl2 + 50 µL FXa + 50 µL citrated plasma, and 7) 50 µL PBS + 50 µL Actin FSL + 50 µL CaCl2 + 50 µL PBS + 50 µL citrated plasma. Final concentrations in the approach were 6 mM CaCl2, 0–20 µM heme, 32 nM and PZ, 0.1 nM FXa. Data were normalized against the clotting time of citrated plasma only (control (7)) and evaluated as the mean of triplicates. The IC50 was determined by fitting the curves with nonlinear regression (GraphPad Prism, version 10.5.0).

A further assay concerns the target thrombin (Homo sapiens, UniProt P00734). Put plainly: SPR binding of porphyrins to immobilized thrombin. To be noted: heterogeneous ligand model. On the set-up: human α‐thrombin (HCT‐0020); purchased CellSystems GmbH HCT-0020. On the procedure:
as §1
Figure S7. Heme binds to thrombin. For SPR analysis, thrombin (10 µg/ml) was dissolved in 10 mM sodium acetate buffer (pH 6.0) and immobilized onto a CM5 sensor chip via standard amine coupling, resulting in a final immobilization level of 1826.1 RU. Binding kinetics were assessed by injecting six increasing concentrations of heme (187.5 – 6,000 nM) in a single-cycle kinetics format at 25°C and a flow rate of […]
transient nature of heme binding to thrombin. […]

Assay [2] concerns the target coagulation factor VIII (FVIII). On the set-up: method as in PMID 3105105, PMID 22471307, PMID 38631156. Conditions: read-out: K D (heme binding to FVIII); cited from earlier work.

T1 sequence (P22891 41-400): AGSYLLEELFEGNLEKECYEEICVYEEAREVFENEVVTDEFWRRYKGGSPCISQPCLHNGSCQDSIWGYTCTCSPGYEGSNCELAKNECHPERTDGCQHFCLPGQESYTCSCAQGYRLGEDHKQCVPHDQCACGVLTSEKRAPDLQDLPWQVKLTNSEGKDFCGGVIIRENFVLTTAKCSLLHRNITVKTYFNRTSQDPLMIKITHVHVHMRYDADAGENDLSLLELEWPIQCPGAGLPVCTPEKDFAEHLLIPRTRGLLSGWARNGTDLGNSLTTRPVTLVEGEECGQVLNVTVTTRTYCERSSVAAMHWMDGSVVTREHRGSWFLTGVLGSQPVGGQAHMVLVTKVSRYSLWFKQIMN
T2 sequence (P22891 41-400): as above

As for Hemin [heme], the “k a1 (association rate)” value at Human protein Z (PZ) (first binding event) turned out to be 47300 M⁻¹ s⁻¹. For the same substance, on Human protein Z (PZ) (first binding event), the “k d1 (dissociation rate)” value turned out to be 0.00583 s⁻¹. Moreover, the Kd is 123 nM on Human protein Z (PZ) (heme 187.5 nM–12 µM, 25 °C, read-out: K D1 (heme-binding affinity for PZ)); 8570 nM on Human protein Z (PZ) (read-out: K D2 (second binding event, likely unspecific)); about 400 nM in assay [1]; ~3000 nM and ~3300 nM at fibrinogen; 92.9 nM at thrombin (read-out: KD1 (porphyrin binding to thrombin)); 709 nM at thrombin (read-out: KD2 (porphyrin binding to thrombin)). In addition, the Kd in assay [2] was 2 to 13 nM. Besides, the “k a2 (association rate)” value at Human protein Z (PZ) (second binding event) worked out at 845 M⁻¹ s⁻¹. The “k d2 (dissociation rate)” value at Human protein Z (PZ) (second binding event) is 0.00724 s⁻¹. Further, at PZ, the “heme level at which the procoagulant function of FXa was restored” value is at least 2 µM. The IC50 on PZ (heme 0.06–20 µM, citrated pooled plasma, read-out: IC50 (inhibition of the anticoagulant function of PZ against FXa)) was determined as 830 ± 210 nM. In addition, the “impact alone on the procoagulant function of FXa or on clotting of pure plasma (aPTT)” value is “did not exert any significant impact” on PZ and “did neither affect” at PZ (listed as Heme).
